Data on 2 compounds can be found in EPA's ToxValDB 9.5 (doi:10.2903/j.efsa.2010.1671).

In data set [1] the test system is Rattus norvegicus. To be noted: for NOAEL: inhalation.
The subject of data set [2] is Leuciscus idus. The following applies: acute; duration: 96 hours; mortality.
For data set [3], the system named is Macromiidae. The following applies: acute; duration: 72 hours; biomass.
Data set [4] deals with Anas platyrhynchos. To be noted: short-term; oral; feed; mortality.
In data set [5] the test system is Colinus virginianus. The following applies: acute, oral, mortality.
For data set [6], the system named is Coturnix japonica. The following applies: reproduction developmental.
[7] abbreviates: chronic, duration: 2 years, no effects.
The mark [8] stands for this setting: reproduction developmental, mortality.
Setting [9] is: subchronic, duration: 90 days, no effects.

Bounds are passed on as bounds.

What is called NOAEL is the highest dose or exposure tested at which no adverse effect was seen.

Consider `P` [Phosphine], for which the no-observed-adverse-effect level (NOAEL) in data set [1] (setting [7]) came to 1.1 mg/kg-day; in data set [1] (setting [8]), 1.9 mg/kg-day; in data set [1] (setting [9]), 1.1 mg/kg-day.

In the case of `[PH]=[Zn].[PH]=[Zn].[Zn]` [Zinc phosphide (Zn3P2)], the LC50 in data set [2] was more than 21.7 µg/mL; in data set [4], 2880 mg/kg; in data set [5] (diet), 468 mg/kg. Besides, the NOEC in data set [3] is 0.00323 mg/L. For the same compound, the LD50 in data set [5] was found to be 12.9 mg/kg-day; in data set [1] (acute, oral, mortality), 37 mg/kg-day. Moreover, the NOAEL in data set [1] (setting [7]) is 1.1 mg/kg-day; in data set [1] (setting [8]) it was 1.9 mg/kg-day; in data set [1] (setting [9]) it was 1.1 mg/kg-day. Further, the LOEC in data set [1] (subchronic, duration: 90 days, oral) amounted to 3.5 mg/kg-day. For the same compound, the NOEL in data set [6] (F) worked out at 0.99 mg/kg-day; in data set [6] (M), 1.2 mg/kg-day.
